In the assay the test system is OR6 cells harboring full-length genotype 1b HCV replicon ORN/C-5B/KE (HCV RNA replication). Description: microbe, parasite or virus in culture. The settings on record: 48 hours; for antiviral activity (in words): OR6 full-length replicon. The assay is classed as cell-based, Hepatitis C virus (strain HCV—O. An excerpt: HCV Replicon System-Secondary Assays. For validation, OR6 cells stably harboring the full-length genotype 1 replicon, ORN/C-5B/KE9 were used to examine compound activity in a more authentic viral polyprotein context. This replicon was derived from the 1B-2 strain (strain HCV—O, genotype 1b), in which the Renilla luciferase gene is introduced as a fusion protein with neomycin to facilitate the monitoring of HCV replication. This construct contains a tissue culture adaptive mutation in the NS3 region. Cells were cultured in an identical manner to the Huh7/Rep-Feo cells.
Secondary Assays-Hit Validation. Several hits from primary HTS, as well as functionally related compounds, were purchased from Sigma (St. Louis, Mo.), Calbiochem (San Diego, Calif.), and Microsource (Gaylordsville, Conn.). […] Ten mM of stock solutions of the individual compounds to be tested was prepared in the appropriate solvent (DMSO, ethanol, or H2O, according to the manufacturer's information) and stored at −20° C. Cells were seeded into 96-well plates at a density of 2000 cells/well in 100 μL of medium. The cells were incubated for 24 hours at 37° C. to obtain the optimal level of adherence. Solutions of candidate hit compounds were added to wells to achieve final concentrations of 0.1, 1, 10, 50, and 100 μM. The final concentration of DMSO or ethanol in every well was 1% or less by volume. Mock solutions were used as a negative control. PEG-IFN and ribavirin were used as positive controls at various concentrations, alone and in combination. The plates were then incubated at 37° C. with 5% CO2 for 48 hours before they were analyzed. Luminescent signal was generated using the Renilla luciferase assay kit (Promega) according to the manufacturer's instructions. Signal was then detected using a LumiCount (Packard BioScience Company) luminometer. Cell viability was assessed using CellTiter-Glo (Promega), following the manufacturer's instructions. All experiments were performed in triplicate.
Secondary Assays-Data Analysis. Values were presented as a percentage of mock treated control, which was arbitrarily set at 100%. Data were expressed as the mean (±) SD. […] Synergy calculations were performed using CalcuSyn (Biosoft; Cambridge, England).
HCV Replicon System—Secondary Assays: For replicon validation, OR6 cells stably harboring the full-length genotype 1 replicon, ORN/C-5B/KE were used (Burke J. Am. Chem. Soc. (2004) 126:14095-14104). This replicon was derived from the 1B-2 strain (strain HCV—O, genotype 1b), in which the Renilla luciferase gene is introduced as a fusion protein with the Neomycin resistance cassette to facilitate the monitoring of HCV replication. This construct contains a tissue culture adaptive mutation in the NS3 region. Cells were cultured in an identical manner to the Huh7/Rep-Feo cells.
Secondary Assays—Hit Validation: 10 mM of stock solutions of the individual compounds to be tested were prepared in DMSO and stored at −20° C. Cells were seeded into 96-well plates at a density of 2,000 cells/well in 100 μl of medium. The cells were incubated for 24 hours at 37° C. to obtain the optimal level of adherence. Solutions of candidate hit compounds were added to wells to achieve varying final concentrations between 0.01 and 100 μM. The final concentration of DMSO or ethanol in every well was 1% or less by volume. Mock solutions were used as a negative control. Peginterferon-alfa-2b (PEG-Intron; Schering Corp.; Kenilworth, N.J.) and ribavirin (Sigma; St. Louis, Mo.) were used as positive controls at various concentrations, alone and in combination. The plates were then incubated at 37° C. with 5% CO2 for 48 hours before they were analyzed. Luminescent signal was generated using the Renilla luciferase assay kit (Promega; Madison, Wis.) according to the manufacturer's instructions. Signal was then detected using a LumiCount™ (Packard BioScience Company; Downers Grove, Ill.) luminometer.

Setting [1] is: Hepatitis C virus, OR6, 48 h, read-out: IC50 (HCV RNA replication, luciferase), OR6 full-length genotype 1b replicon.

Where two headings read alike, the source gives them in different places. A value given as a limit tells only on which side of the number the result lay.

`COc1cc2c(cc1OC)-c1c/c(=N\c3c(C)cc(C)cc3C)n(C)c(=O)n1CC2` [trequinsin, reference compound]: the “antiviral activity (in words)” value was “antiviral activity at the lower concentrations of 1 and 10 μM”. Consider `CC(=O)OC[C@H]1O[C@H](CCO/N=C2/[C@H]3CCn4c(=O)n(-c5ccccc5)c(=O)n4[C@H]3[C@H](O)[C@@H]3O[C@H]23)C=C[C@@H]1OC(C)=O` [BUCMLD-B10A3], for which the IC50 (commonly the midpoint of a concentration-inhibition curve) runs as follows: under setting [1], greater than 500 nM; (read-out: IC50 (HCV RNA replication, luciferase), OR6 full-length genotype 1b replicon) less than 1000 nM. Turning to `O=C1C2C=C(I)C(CC2OCCCCO)[C@@]12CO2` (some centres unmarked) [SM_A5B3_2P141], the “antiviral activity (in words)” value is given as “modest antiviral activity”. Further, the IC50 under setting [1] lay in the range of 10000 to 50000 nM.

`Cc1cc(C)c(-c2cc([C@H](C)O/N=C3/[C@H]4CCn5c(=O)n(-c6ccccc6)c(=O)n5[C@H]4[C@H](O)[C@@H]4O[C@H]34)on2)c(C)c1` [BUCMLD-B10A11]: the IC50 under setting [1] is less than 500 nM.

Regarding `O=C1C2(CO)C=C(Br)C(CC2c2ccccc2)[C@@]12CO2` (some centres unmarked) [SM_A6B5_2P100], under setting [1], the IC50 was roughly 7000 nM. Same read-out and setting: in the case of `Cc1cc2c(nc1C)CCCN2CC(C)O/N=C1/[C@H]2CCn3c(=O)n(-c4ccccc4)c(=O)n3[C@H]2[C@H](O)[C@@H]2O[C@H]12` (some centres unmarked) [BUCMLD-B10A5] it was roughly 1000 nM.

The values are drawn from patent publication US20120094939A1, “ANTI-VIRAL COMPOUNDS, COMPOSITIONS AND METHODS” (priority 2007, published 2012).
